As a reminder, the IC50 is the midpoint of a concentration-inhibition curve.

For this assay, the target named is T1, CETP (Homo sapiens, UniProt P11597).
T1 construct: tissue New Drug Development Research Center, Inc; host or cells: human EDTA plasma from healthy men
T1 sequence (P11597 18-493): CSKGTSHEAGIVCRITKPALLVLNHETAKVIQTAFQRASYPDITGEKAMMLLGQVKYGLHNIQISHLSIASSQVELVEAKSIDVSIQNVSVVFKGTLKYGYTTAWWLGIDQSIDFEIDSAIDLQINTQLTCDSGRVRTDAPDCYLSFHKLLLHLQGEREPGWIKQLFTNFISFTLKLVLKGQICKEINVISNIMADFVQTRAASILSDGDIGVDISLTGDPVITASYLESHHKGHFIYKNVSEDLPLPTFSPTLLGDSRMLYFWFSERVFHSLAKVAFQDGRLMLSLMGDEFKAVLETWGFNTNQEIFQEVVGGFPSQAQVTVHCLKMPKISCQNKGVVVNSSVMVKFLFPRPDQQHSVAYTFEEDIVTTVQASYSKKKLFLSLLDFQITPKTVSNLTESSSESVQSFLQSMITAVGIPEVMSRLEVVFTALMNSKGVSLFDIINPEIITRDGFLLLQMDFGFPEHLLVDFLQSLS
Kind of assay: In vitro CETP activity assay in human plasma. It counts as biochemical. The following applies: CETP inhibition; Table 1 does not name the assay, it follows the human plasma assay; read-out: IC50 (nM), Inhibitory Activity of Compounds. The protocol: The cDNA of human pro-apoAI (NCBI accession number: NM_000039) is cloned from human liver Quick-Clone™ cDNA (Clontech, CA) and inserted to a pET28a vector (Novagen, Germany) for bacterial expression. Expressed protein as a fusion protein with 6×His-tag at N-terminus in BL-21 Gold (DE3) (Strategene, CA) is purified using HiTrap Chelating (GE Healthcare, CT).
Pro-apoAI containing microemulsion as a donor particle is prepared following previous reports (J. Biol. Chem., 280:14918-22). Glyceryl trioleate (62.5 ng, Sigma, Mo.), 3-sn-phosphatidylcholine (583 ng, Wako Pure Chemical Industries, Japan), and cholesteryl BODIPY® FL C12 (250 ng, Invitrogen, CA) are dissolved in 1 mL of chloroform. The solution is evaporated, then residual solvent is removed in vacuum for more than 1 hr. The dried lipid mixture is dissolved in 500 μL of the assay buffer (50 mM Tris-HCl (pH7.4) containing 150 mM NaCl and 2 mM EDTA) and sonicated at 50° C. with a microtip (MICROSON™ ULTRASONIC CELL DISRUPTOR, Misonix, Farmingdale, N.Y.) at output power 006 for 2 min. After sonication, the solution is cooled to 40° C., added to 100 μg of human pro-apoAI, and sonicated at output power 004 for 5 min at 40° C. The solution, BODIPY-CE microemulsion as a donor molecule is stored at 4° C. after filtration through a 0.45 μm PVDF filter.
Human EDTA plasma samples from healthy men are purchased from New Drug Development Research Center, Inc. Donor solution is prepared by a dilution of donor microemulsion with assay buffer. Human plasma (50 μL), assay buffer (35 μL) and test compound dissolved in dimethylsulfoxide (1 μL) are added to each well of 96 well half area black flat bottom plate. The reaction is started by the addition of donor solution (14 μL) into each well. Fluorescence intensities are measured every 30 min at 37° C. with excitation wave length of 485 nm and emission wavelength of 535 nm. The CETP activity (FI/min) is defined as the changes of fluorescence intensity from 30 to 90 min.
In the case of `CC[C@@H]1C[C@H](N(Cc2cc(C(F)(F)F)cc(C(F)(F)F)c2)c2ncc(-c3cnn(C)c3)cn2)C[C@H](CC)N1C(=O)[C@H]1CC[C@H](CC(=O)O)CC1` [Example 1-2], the IC50 is 142 nM.

On to `CC[C@@H]1C[C@H](N(Cc2cc(C(F)(F)F)cc(C(F)(F)F)c2)c2ncc(-c3cnn(C)c3)cn2)C[C@H](CC)N1C(=O)OCCCCC(=O)O` [Example 1-5], for which the IC50 turned out to be 135 nM.

On to `CC[C@@H]1C[C@H](N(Cc2cc(C(F)(F)F)cc(C(F)(F)F)c2)c2ncc(-c3cnn(C)c3)cn2)C[C@H](CC)N1C(=O)O[C@H]1CC[C@H](C(=O)O)CC1` [Example 1-8], for which the 50% inhibitory concentration (IC50) is 69 nM. For `CC[C@@H]1C[C@H](N(Cc2cc(C(F)(F)F)cc(C(F)(F)F)c2)c2ncc(-c3cnn(C)c3)cn2)C[C@H](CC)N1C(=O)OCC(C)(C)CCC(=O)O` [Example 1-11] the value was 63 nM; for `CC[C@@H]1C[C@H](N(Cc2cc(C(F)(F)F)cc(C(F)(F)F)c2)c2ncc(-c3cnn(C)c3)cn2)C[C@H](CC)N1C(=O)O[C@H]1C[C@H](C(=O)O)C1` [Example 1-17], 86 nM; for `C[C@@H]1C[C@H](N(Cc2cc(C(F)(F)F)cc(C(F)(F)F)c2)c2ncc(-c3cnn(C)c3)cn2)C[C@H](C)N1C(=O)O[C@H]1CC[C@H](C(=O)O)CC1` [Example 1-19], 98 nM. For `CC[C@@H]1C[C@H](N(Cc2cc(Cl)cc(Cl)c2)c2ncc(-c3cnn(C)c3)cn2)C[C@H](CC)N1C(=O)O[C@H]1CC[C@H](C(=O)O)CC1` [Example 1-20] the value was 91 nM.

In the case of `CC[C@@H]1C[C@H](N(Cc2cc(F)cc(C(F)(F)F)c2)c2ncc(-c3cnn(C)c3)cn2)C[C@H](CC)N1C(=O)O[C@H]1CC[C@H](C(=O)O)CC1` [Example 1-22], the IC50 came out at 99 nM. On to `CC[C@@H]1C[C@H](N(Cc2cc(C(F)(F)F)cc(C(F)(F)F)c2)c2ncc(-c3cnn(C)c3)cn2)C[C@H](CC)N1C(=O)O[C@H]1C[C@H](C(C)(C)C(=O)O)C1` [Example 1-27], for which the IC50 stood at 152 nM.

As to `CC[C@@H]1C[C@H](N(Cc2cc(C(F)(F)F)cc(C(F)(F)F)c2)c2ncc(-c3cnn(C)c3)cn2)C[C@H](CC)N1C(=O)OCCCCC(N)=O` [Example 4, cis-4-{[3,5-bis(trifluoromethyl)benzyl]-[5-(1-methyl-1H-pyrazol-4-yl)-pyrimidin-2-yl]-amino}-2,6-diethyl-piperidine-1-carboxylic acid 4-carbamoyl-butyl ester], the IC50 amounted to 68 nM.

Source of the values: patent US8193349B2, “4-benzylamino-1-carboxylacyl-piperidine derivatives as CETP inhibitors” (Novartis AG, priority 2007, dated 2012).
